Consider 10 compounds from patent publication US12071430B2 (The Johns Hopkins University, priority 2011, dated 2024).

In brackets after ≈: the same amount, converted by molar mass.

Data set [1] has as its system HUVEC. The data set is described as follows: HUVEC proliferation, [3H]-thymidine incorporation assay. The format is cell-based, human. The note with it: HUVEC. As to the method: (§1) The inhibitory effects of the new analogs on HUVEC proliferation were measured using a [3H]-thymidine incorporation assay. The log P values, used as an indicator of lipophilicity, were calculated using ALOGPS2.1 software. Aqueous solubility is a key physiochemical property relevant for oral absorption. We determined the solubility of each analog in 0.001 N HCl (pH=3), which represents the acidic human gastric fluid.
HUVEC Culture and Proliferation Assays. HUVEC (Lonza) were grown in EGM-2 bullet kit media (Lonza) and used at passage eight or lower. The H thymidine incorporation assays were conducted as previously described. Briefly, cells were seeded on 96-well plate at a concentration of 2000 cells/well and allowed to settle overnight. Drugs were added to each well in triplicate. After 24 hours, cells were treated with 1 μCi of [3H] thymidine for 6 h. Then cells were harvested and transferred to filtermats. The scintillation were counted and IC50 were determined using Prism software (version 6.0).
In general terms: Dividing cells build labelled thymidine or BrdU into new DNA.

Data set [2] in a line: Aqueous solubility test in 0.001N HCl. The data set is classed as physicochemical. To be noted: 0.001 N HCl aqueous buffer, simulated gastric fluid, kinetic from dmso stock; thermodynamic solubility, HPLC, pH=3, room temperature, 24 h. As to the method: as §1
Aqueous solubility test. In a 1.5 mL microcentrifuge tube, 2 ul of 10 mM compound stock solution in DMSO was added to 1 mL 0.001N HCl aqueous buffer to obtain saturated solution. The resulting mixture was shaken under 600 rpm for 24 h at room temperature. Then the tube was centrifuged at 13,000 rpm for 5 min to remove the undissolved compound. 100 ul of the supernatant was injected to an Agilent 6120 LC/MS for analysis. The mass spectrometry data was collected under SIM/Scan mode. The ions of compound Exact Mass+1 and Exact Mass+23 were monitored as selected ion monitoring (SIM) for peak area integration. Solubility was calculated according to the concentration standard curve of each compound.

In data set [3] the test system is HUVEC. Put plainly: HUVEC proliferation, [3H]-thymidine incorporation assay. The format is cell-based. The note with it: Homo sapiens, mean ± SD, three independent experiments, read-out: HUVEC inhibition IC50.
Another data set addresses T1, CYP3A4 (Homo sapiens, UniProt P08684).
T1 construct: purchased ThermoFisher P2857; host or cells: baculosomes (insect-cell microsomes, own knowledge)
The data set is described as follows: CYP3A4 enzyme assay (Vivid CYP3A4 Green Screening Kit). The format is in vitro ADME. The note with it: dose-response, FIG. 2 / FIG. 6; read-out: IC50 for CYP3A4 inhibition. The procedure: And CYP3A4 inhibition was initially determined using a cell-free fluorescence-based assay at a final concentration of 1 μM (Table 2).
CYP3A4 enzyme assay. CYP3A4 enzyme activity was tested using Vivid™ CYP3A4 Green Screening Kit (ThermoFisher, #P2857) using the manufacturer's protocol. Briefly, CYP3A4 baculosomes and drugs were incubated 10 min at 37° C. Then Vivid® Substrates were added and the fluorescence (ex/em:485/520) were read every 1 min for 60 minute.

The next data set deals with HUVECs. The data set is described as follows: Filipin staining of intracellular cholesterol (NPC phenotype). The format is cell-based, human. To be noted: HUVEC, 0.2 μM, 24 h. From the text: Nieman-Pick C phenotype and mTOR inhibition. […] We thus determined whether compound 48 shared the same mechanism with itraconazole. The intracellular cholesterol was detected using the cholesterol-binding fluorescent dye filipin. […] It is known that AMPK activation leads to mTOR inhibition.
Inhibition of NPC1. NPC1 plays an essential role in cholesterol export from the endolysosome. […] At a close view (FIG. 9B), the linear pyridinyl-piperizin-1-yl-phenyl core of compound 14 nestled into the hydrophobic channel created by the transmembrane helix. The isobutyl tail faced toward the open entrance of this channel. The tetrazole moiety pointed into the closed end of the pocket and interacted with the hydroxyl group of Tyr1225 via hydrogen bonding.
Filipin staining. 2000 HUVECs were plated in chamber slide with 1 ml media and allowed to settle overnight. […] The the cells were fixed with 4% paraformaldehyde for 15 min. After washed, cells were incubated with 500 ul 50 ug/ml filipin solution for 1 hour in the dark. Then the cells were washed twice with PBS, mounted and covered with coverslip. The images were taken using confocal microscope under 360/460 nm.

T1 sequence (P08684 whole entry): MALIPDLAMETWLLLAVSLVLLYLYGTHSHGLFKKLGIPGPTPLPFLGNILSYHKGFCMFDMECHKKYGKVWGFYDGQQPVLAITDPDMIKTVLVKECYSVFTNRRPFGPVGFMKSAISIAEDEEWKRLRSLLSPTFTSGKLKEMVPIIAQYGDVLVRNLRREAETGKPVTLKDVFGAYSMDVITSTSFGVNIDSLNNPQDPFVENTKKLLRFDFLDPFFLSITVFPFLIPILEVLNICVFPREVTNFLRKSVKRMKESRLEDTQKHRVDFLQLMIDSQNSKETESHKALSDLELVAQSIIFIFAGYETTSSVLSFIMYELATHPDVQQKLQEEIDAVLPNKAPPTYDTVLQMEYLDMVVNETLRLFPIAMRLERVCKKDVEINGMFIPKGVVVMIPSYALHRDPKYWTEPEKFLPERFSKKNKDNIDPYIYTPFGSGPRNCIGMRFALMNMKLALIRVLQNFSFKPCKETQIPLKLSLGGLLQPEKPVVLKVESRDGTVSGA

The term solubility denotes the dissolved amount per volume that the medium holds. High values mean a readily soluble substance, low ones a poorly soluble substance. In general, IC50 refers to the concentration that inhibits the measured activity by half. As to `CCC(C)n1ncn(-c2ccc(N3CCN(c4ccc(OC[C@@H]5CO[C@@](Cn6ccnc6)(c6ccc(Cl)cc6Cl)O5)cc4)CC3)c(F)c2)c1=O` (stereo partly drawn) [Compound 1, 4-(4-(4-(4-(((2S,4R)-2-((1H-imidazol-1-yl)methyl)-2-(2,4-dichlorophenyl)-1,3-dioxolan-4-yl)methoxy)phenyl)piperazin-1-yl)-3-fluorophenyl)-2-(sec-butyl)-2,4-dihydro-3H-1,2,4-triazol-3-one], in the data set on HUVEC [1], the “HUVEC proliferation / anti-angiogenic potency compared to itraconazole, in words” value was “increased activities”. This compound came in with a solubility at 24 h in data set [2] of 17.2 µg/mL (≈ 23.7 µM). The IC50 in the data set with HUVEC [3] was 70.1 ± 15.4 nM.
Turning to `CCC(C)n1ncn(-c2ccc(N3CCN(c4ccc(OC[C@@H]5CO[C@@](Cn6ccnc6)(c6ccc(Cl)cc6Cl)O5)cn4)CC3)cc2)c1=O` (stereo partly drawn) [Compound 4, 4-(4-(4-(5-(((2S,4R)-2-((1H-imidazol-1-yl)methyl)-2-(2,4-dichlorophenyl)-1,3-dioxolan-4-yl)methoxy)pyridin-2-yl)piperazin-1-yl)phenyl)-2-(sec-butyl)-2,4-dihydro-3H-1,2,4-triazol-3-one], the IC50 was found to be 2600 nM on CYP3A4 and 69.1 ± 7 nM with HUVEC [3]. For the same compound, the “HUVEC proliferation / anti-angiogenic potency compared to itraconazole, in words” value in the data set with HUVEC [1] is listed as “increased activities”. In data set [2], the solubility at 24 h was 2.94 µg/mL (≈ 4.16 µM).
For the compound `CCC(C)n1ncn(-c2ccc(N3CCN(c4ccc(OC[C@@H]5CO[C@@](Cn6ccnc6)(c6ccc(Cl)cc6Cl)O5)cn4)CC3)c(F)c2)c1=O` (stereo partly drawn) [Compound 5, 4-(4-(4-(5-(((2S,4R)-2-((1H-imidazol-1-yl)methyl)-2-(2,4-dichlorophenyl)-1,3-dioxolan-4-yl)methoxy)pyridin-2-yl)piperazin-1-yl)-3-fluorophenyl)-2-(sec-butyl)-2,4-dihydro-3H-1,2,4-triazol-3-one], the “HUVEC proliferation / anti-angiogenic potency compared to itraconazole, in words” value in the data set with HUVEC [1] was “increased activities”. Further, the solubility at 24 h in data set [2] was 125 µg/mL (≈ 173 µM). Also, the IC50 in the data set on HUVEC [3] turned out to be 68 ± 15.5 nM.
On the same counts, the results for `CCC(C)n1ncn(-c2ccc(N3CCN(c4ccc(OC[C@@H]5CO[C@@](Cn6ccnc6)(c6ccc(Cl)cc6Cl)O5)cc4)CC3)nc2)c1=O` (stereo partly drawn) [Compound 6, 4-(6-(4-(4-(((2S,4R)-2-((1H-imidazol-1-yl)methyl)-2-(2,4-dichlorophenyl)-1,3-dioxolan-4-yl)methoxy)phenyl)piperazin-1-yl)pyridin-3-yl)-2-(sec-butyl)-2,4-dihydro-3H-1,2,4-triazol-3-one] are “increased activities”, 7.99 µg/mL (≈ 11.3 µM) and 98.5 ± 36.3 nM.
Turning to `CCC(C)n1ncn(-c2ccc(N3CCN(c4ccc(OC[C@@H]5CO[C@@](Cn6cnnn6)(c6ccc(Cl)cc6Cl)O5)cc4)CC3)c(F)c2)c1=O` (stereo partly drawn) [Compound 8, 4-(4-(4-(4-(((2S,4R)-2-((1H-tetrazol-1-yl)methyl)-2-(2,4-dichlorophenyl)-1,3-dioxolan-4-yl)methoxy)phenyl)piperazin-1-yl)-3-fluorophenyl)-2-(sec-butyl)-2,4-dihydro-3H-1,2,4-triazol-3-one], the “induction of NPC phenotype (cholesterol accumulation)” value with HUVECs is listed as “massive build-up of cholesterol”. The figures for the IC50 at CYP3A4 and in the data set on HUVEC [3] were more than 100000 nM and 153 ± 32.7 nM, respectively. In addition, in data set [2], the solubility at 24 h was 0.0528 µg/mL (≈ 0.0729 µM).
For the compound `CCC(C)n1ncn(-c2ccc(N3CCN(c4ccc(OC[C@@H]5CO[C@@](Cn6cnnn6)(c6ccc(Cl)cc6Cl)O5)cn4)CC3)c(F)c2)c1=O` (stereo partly drawn) [Compound 15, 4-(4-(4-(5-(((2S,4R)-2-((1H-tetrazol-1-yl)methyl)-2-(2,4-dichlorophenyl)-1,3-dioxolan-4-yl)methoxy)pyridin-2-yl)piperazin-1-yl)-3-fluorophenyl)-2-(sec-butyl)-2,4-dihydro-3H-1,2,4-triazol-3-one], the “induction of NPC phenotype (cholesterol accumulation)” value with HUVECs was “massive build-up of cholesterol”. Moreover, the IC50 at CYP3A4 came out at 37000 nM; in the data set on HUVEC [3] it was 108 ± 8.6 nM. Moreover, in data set [2], the solubility at 24 h was 0.708 µg/mL (≈ 0.975 µM).
As for `CCC(C)n1ncn(-c2ccc(N3CCN(c4ccc(OC[C@@H]5CO[C@@](Cn6cncn6)(c6ccc(Cl)cc6Cl)O5)cn4)CC3)cc2)c1=O` (stereo partly drawn) [Compound 101, 4-(4-(4-(5-(((2S,4R)-2-((1H-1,2,4-triazol-1-yl)methyl)-2-(2,4-dichlorophenyl)-1,3-dioxolan-4-yl)methoxy)pyridin-2-yl)piperazin-1-yl)phenyl)-2-(sec-butyl)-2,4-dihydro-3H-1,2,4-triazol-3-one], the IC50 at CYP3A4 is 3400 nM; in the data set with HUVEC [3] it was 380 ± 50.8 nM. For the same compound, the solubility at 24 h in data set [2] was 0.114 µg/mL (≈ 0.161 µM).
In data set [2], `CCC(C)n1ncn(-c2ccc(N3CCN(c4ccc(OC[C@@H]5CO[C@@](Cn6cncn6)(c6ccc(Cl)cc6Cl)O5)cc4)CC3)c(F)c2)c1=O` (stereo partly drawn) [Compound 104, 4-(4-(4-(4-(((2S,4R)-2-((1H-1,2,4-triazol-1-yl)methyl)-2-(2,4-dichlorophenyl)-1,3-dioxolan-4-yl)methoxy)phenyl)piperazin-1-yl)-3-fluorophenyl)-2-(sec-butyl)-2,4-dihydro-3H-1,2,4-triazol-3-one] yielded a solubility at 24 h of 0.0291 µg/mL (≈ 0.0402 µM). Further, the half-maximal inhibitory concentration (IC50) in the data set with HUVEC [3] was determined as 128 ± 59.7 nM.
On the same counts, the results for `CCC(C)n1ncn(-c2ccc(N3CCN(c4ccc(OC[C@@H]5CO[C@@](Cn6cncn6)(c6ccc(Cl)cc6Cl)O5)nc4)CC3)c(F)c2)c1=O` (stereo partly drawn) [Compound 105, 4-(4-(4-(6-(((2S,4R)-2-((1H-1,2,4-triazol-1-yl)methyl)-2-(2,4-dichlorophenyl)-1,3-dioxolan-4-yl)methoxy)pyridin-3-yl)piperazin-1-yl)-3-fluorophenyl)-2-(sec-butyl)-2,4-dihydro-3H-1,2,4-triazol-3-one] are 0.255 µg/mL (≈ 0.352 µM) and 446 ± 38.3 nM.
Consider `CCC(C)n1ncn(-c2ccc(N3CCN(c4ccc(OC[C@@H]5CO[C@@](Cn6cncn6)(c6ccc(Cl)cc6Cl)O5)cn4)CC3)c(F)c2)c1=O` (stereo partly drawn) [Compound 106, 4-(4-(4-(5-(((2S,4R)-2-((1H-1,2,4-triazol-1-yl)methyl)-2-(2,4-dichlorophenyl)-1,3-dioxolan-4-yl)methoxy)pyridin-2-yl)piperazin-1-yl)-3-fluorophenyl)-2-(sec-butyl)-2,4-dihydro-3H-1,2,4-triazol-3-one], for which the solubility at 24 h in data set [2] is 0.848 µg/mL (≈ 1.17 µM). Moreover, in the data set on HUVEC [3], the IC50 was determined as 173 ± 27.6 nM.
